We go through 12 compounds from patent publication US8741946B2, “Inhibitors of flaviviridae viruses” (priority 2011, dated 2014).

Assay [1] concerns the target T1, wild-type NS5B (amino acids 1-570; GT-1b) (Hepatitis C virus genotype 1b, UniProt Q9WMX2).
T1 construct: 21 residue C-terminal truncated forms of the NS5b protein (amino acids 1-570); GT-1b; made in house
In words: Surface Plasmon Resonance binding affinity to wild-type NS5B. Further details: species or system HCV GT-1b. The source says:
(§1) Compounds with minimal fold difference in binding affinity may have particular clinical utility.
(§2) In vitro studies with NS5B employed soluble, 21 residue C-terminal truncated forms of the NS5b protein (amino acids 1-570; GT-1b; wild-type and mutant M423T. See Hung, M., Wang, R., Liu, X.: ‘Preparation of HCV NS3 and NS5B to support small molecule drug discovery’, Current Protocols in Pharmacology, 2011, in press). Surface Plasmon Resonance (SPR) was used to measure the binding affinity of compounds described herein to the protein constructs. Standard amine coupling was employed to link the protein to the surface of a Biacore CM5 sensor chip using 10 mM sodium acetate pH 5.5 buffer to an immobilization level of ˜2500 RU. Experiments were performed using a Biacore T100 system at 25° C. in running buffer (50 mM Hepes pH 7.5, 5 mM MgCl2, […], 1 mM EDTA, 1 mM TCEP, 0.01% P20, 5% DMSO). Compounds were tested in a 3-fold concentration dilution series for 8 concentrations starting at 162 nM, using an association phase of 60 seconds and dissociation phase of 5 minutes at a flow rate of 100 μl min^−1. At the end of each binding cycle, a 3-second injection of a buffer (10 mM disodium tetraborate, 1M NaCl, pH8.5) at 40 μl min^−1 was used as a regeneration step to remove compounds still bound to the NS5B surface. Response data were processed using the following procedure: injections aligned in X and Y directions, double referenced using both a reference surface and buffer injections, and DMSO correction for excluded volume effects. Processed data were analyzed using non-linear least squares analysis with a global fit of a 1:1 binding model with mass transport.

For assay [2], the target named is T2, NS5B mutant M423T (amino acids 1-570; GT-1b) (Hepatitis C virus genotype 1b, UniProt Q9WMX2, M2842T).
T2 construct: 21 residue C-terminal truncated forms of the NS5b protein (amino acids 1-570); GT-1b; made in house
As to the kind of experiment: Surface Plasmon Resonance binding affinity to M423T NS5B. The arrangement: species or system HCV GT-1b.
From the text: as §1, §2

Assay [3] has as its system NS5B mutant M423T (amino acids 1-570; GT-1b). The assay is described as above. Further details: species or system HCV GT-1b. To be noted: M423T KD versus wild-type KD.
From the text: as §1, §2

The test system of assay [4] is HCV replicon. As to the kind of experiment: HCV replicon assay in Huh-7 cells (luciferase). It counts as cell-based. To be noted: Hepatitis C virus, 72 h; Huh-7 HCV replicon cells, 3 days incubation, luciferase readout; read-out: Wild-type EC50. How it is done: The anti-HCV activity of the compounds of this invention was tested in a human hepatoma Huh-7 cell line harboring a HCV replicon. The assay comprised the following steps:
Serial dilution was performed in 100% DMSO in a 384-well plate. A solution containing a compound at 225-fold concentration of the starting final serial dilution concentration was prepared in 100% DMSO and 15 μL added to the pre-specified wells in column 3 or 13 of a polypropylene 384-well plate. The rest of the 384-well plate was filled with 10 μL100% DMSO except for columns 23 and 24, where 10 μL of 500 uM a HCV protease inhibitor (ITMN-191) in 100% DMSO was added. The HCV protease inhibitor was used a control of 100% inhibition of HCV replication. The plate was then placed on a Biomek FX Workstation to start the serial dilution. The serial dilution was performed for ten cycles of 3-fold dilution from column 3 to 12 or from column 13 to 22.
To each well of a black polypropylene 384-well plate, 90 μL of cell media containing 1600 suspended Huh-7 HCV replicon cells was added with a Biotek uFlow Workstation. A volume of 0.4 μL of the compound solution was transferred from the serial dilution plate to the cell culture plate on a Biomek FX Workstation. The DMSO concentration in the final assay condition was 0.44%. The plates were incubated for 3 days at 37° C. with 5% CO2 and 85% humidity.
a) Assessment of cytotoxicity: The media in the 384-well cell culture plate was aspirated with a Biotek EL405 plate-washer. A volume of 50 μL of a solution containing 400 nM Calcein AM in 100% PBS was added to each well of the plate with a Biotek uFlow Workstation. The plate was incubated for 30 minutes at room temperature before the fluorescence signal ([…]) was measured with a Perkin Elmer Envision Plate Reader.
b) Assessment of inhibition of viral replication: The calcein-PBS solution in the 384-well cell culture plate was aspirated with a Biotek EL405 plate-washer. A volume of 20 μL of Dual-Glo luciferase buffer (Promega, Dual-Glo Luciferase Assay Reagent, cat. #E298B) was added to each well of the plate with a Biotek uFlow Workstation. The plate was incubated for 10 minutes at room temperature. A volume of 20 μL of a solution containing 1:100 mixture of Dual-Glo Stop & Glo substrate (Promega, Dual-Glo Luciferase Assay Reagent, cat. #E313B) and Dual-Glo Stop & Glo buffer (Promega, Dual-Glo Luciferase Assay Reagent, cat. #E314B) was then added to each well of the plate with a Biotek uFlow Workstation. The plate was incubated at room temperature for 10 minutes before the luminescence signal was measured with a Perkin Elmer Envision Plate Reader.
The percent cytotoxicity was determined by calcein AM conversion to fluorescent product. The average fluorescent signal from the DMSO control wells were defined as 100% nontoxic. The individual fluorescent signal from testing compound treated well was divided by the average signal from DMSO control wells and then multiplied by 100% to get the percent viability. The percent anti-HCV replication activity was determined by the luminescence signal from the testing well compared to DMSO controls wells. The background signal was determined by the average luminescence signal from the HCV protease inhibitor treated wells and was subtracted from the signal from the testing wells as well as the DMSO control wells. Following 3-fold serial dilutions, the EC50 and CC50 values were calculated by fitting % inhibition at each concentration to the following equation: % inhibition=100%/[(EC50/[I])^b+1]
Where b is Hill's coefficient. See, for reference, Hill, A. V., The Possible Effects of the Aggregation of the Molecules of Hemoglobin on its Dissociation Curves, J. Physiol. 40: iv-vii. (1910).
% inhibition values at a specific concentration, for example 2 μM, can also be derived from the formula above.

Assay [5] relates to genotype 1b (Con-1 strain) HCV replicon, wild-type. As to the kind of experiment: Transient transfection replicon assay, wild-type PI-hRluc replicon in Huh-lunet cells. It counts as cell-based, HCV genotype 1b (Con-1 strain). To be noted: Hepatitis C virus, 72 h, wild-type genotype 1b PI-hRluc replicon, three days. On the technique in general: A replicon is a self-replicating genome or part of one, used to study replication in cells.

For assay [6], the system named is genotype 1b (Con-1 strain) HCV replicon with NS5B M423T mutation. As to the kind of experiment: Transient transfection replicon assay, NS5B M423T mutant PI-hRluc replicon in Huh-lunet cells. It counts as cell-based, HCV genotype 1b (Con-1 strain). The note with it: Hepatitis C virus, 72 h, read-out: Replicon transient transfection EC50 M423T.
Setting [7] is: SPR, Biacore T100, 25° C., wild-type NS5B, read-out: Wild-type KD.

Where two headings read alike, the source gives them in different places.

`CC1=CC[C@H](C(=O)N(c2cc(C#CC(C)(C)C)sc2C(=O)O)C(C)C)[C@H](C)C1` (single isomer, unassigned) [Example 1]: the Kd in assay [1] (setting [7]) worked out at 1.4 nM; in assay [2], 7.7 nM. In assay [3], this compound came in with a Fold difference of 5.6. Moreover, the EC50 in assay [4] came to 8 nM.

For the compound `CC1=CC[C@@H](C(=O)N(c2cc(C#CC(C)(C)C)sc2C(=O)O)C(C)C)[C@H](C)C1` (single isomer, unassigned) [Example 2], the Kd in assay [1] (setting [7]) amounted to 2.8 nM; in assay [2], 26.8 nM. This compound also showed a Fold difference in assay [3] of 9.5. The EC50 in assay [4] came out at 5 nM.

As to `CC(C)N(c1cc(C#CC(C)(C)C)sc1C(=O)O)C(=O)[C@H]1CC[C@H](C)CC1` [Comparative example 1, 5-(3,3-Dimethylbut-1-ynyl)-3-((1r,4r)-N-isopropyl-4-methylcyclohexanecarboxamido)thiophene-2-carboxylic acid, reference compound], the Kd in assay [1] (setting [7]) amounted to 1.7 nM; in assay [2], 2.78 nM. Moreover, the Fold difference in assay [3] was 16. In addition, the EC50 was 26 nM in assay [5], 293 nM in assay [6] and 26 nM in assay [4].

As to `CC(C)(C)C#Cc1cc(N(C(=O)[C@H]2CC[C@H](C)CC2)[C@H]2CC[C@H](O)CC2)c(C(=O)O)s1` [Comparative example 2, 5-(3,3-Dimethylbut-1-ynyl)-3-((1r,4R)—N-((1r,4R)-4-hydroxycyclohexyl)-4-methylcyclohexanecarboxamido)thiophene-2-carboxylic acid, reference compound], the values for the EC50 in assay [5], in assay [6] and in assay [4] were 10 nM, 343 nM and 6 nM, respectively.

As to `CC(C)N(C(=O)[C@H]1CC[C@H](C)C[C@@H]1C)c1cc(C#CC(C)(C)C)sc1C(=O)O` [Comparative example 3, 5-(3,3-Dimethylbut-1-ynyl)-3-((1S,2S,4S)—N-isopropyl-2,4-dimethylcyclohexanecarboxamido)thiophene-2-carboxylic acid, reference compound], the EC50 in assay [4] came to 50 nM.

In the case of `CC(C)N(C(=O)[C@@H]1CC[C@@H](C)C[C@H]1C)c1cc(C#CC(C)(C)C)sc1C(=O)O` [Comparative example 4, 5-(3,3-Dimethylbut-1-ynyl)-3-((1R,2R,4R)—N-isopropyl-2,4-dimethylcyclohexanecarboxamido)thiophene-2-carboxylic acid, reference compound], the results for the equilibrium dissociation constant (Kd) in assay [1] (setting [7]) and in assay [2] were 3.6 nM and 144 nM, respectively. Also, the Fold difference in assay [3] came to 40. In assay [4], the EC50 worked out at 8 nM.

As for `CC1=CC[C@H](C(=O)N(c2cc(C#CC(C)(C)C)sc2C(=O)O)C(C)C)[C@@H](C)C1` [Example 3, 5-(3,3-Dimethylbut-1-ynyl)-3-((1S,6S)—N-isopropyl-4,6-dimethylcyclohex-3-enecarboxamido)thiophene-2-carboxylic acid], the Kd in assay [1] (setting [7]) worked out at 0.7 nM; in assay [2], 4.2 nM. The EC50 was 5 nM in assay [5], 14 nM in assay [6] and 5 nM in assay [4].

With `CC1=CC[C@@H](C(=O)N(c2cc(C#CC(C)(C)C)sc2C(=O)O)C(C)C)[C@@H](C)C1` [Example 4, 5-(3,3-dimethylbut-1-ynyl)-3-((1R,6S)—N-isopropyl-4,6-dimethylcyclohex-3-enecarboxamido)thiophene-2-carboxylic acid], the results for the Kd in assay [1] (setting [7]) and in assay [2] were 6.5 nM and 18.5 nM, respectively. In assay [4], the EC50 was determined as 38 nM.

Regarding `CC1=CC[C@@H](C(=O)N(c2cc(C#CC(C)(C)C)sc2C(=O)O)C(C)C)CC1` [Example 5, (S)-5-(3,3-Dimethylbut-1-ynyl)-3-(N-isopropyl-4-methylcyclohex-3-enecarboxamido)thiophene-2-carboxylic acid], the Kd in assay [1] is 1.5 nM; in assay [2], 13.7 nM. This compound also gave a Fold difference in assay [3] of 9.0. The EC50 in assay [4] was 10 nM.

For the compound `CC1=CC[C@H](C(=O)N(c2cc(C#CC(C)(C)C)sc2C(=O)O)C(C)C)CC1` [Example 6, (R)-5-(3,3-Dimethylbut-1-ynyl)-3-(N-isopropyl-4-methylcyclohex-3-enecarboxamido)thiophene-2-carboxylic acid], the Kd in assay [1] (setting [7]) turned out to be 1.3 nM; in assay [2], 14.3 nM. In assay [3], this compound registered a Fold difference of 11. Besides, the EC50 in assay [5] is 8 nM; in assay [6], 40 nM; in assay [4], 7 nM.

For `CC1=CC[C@H](C(=O)N(c2cc(C#CC(C)(C)C)sc2C(=O)O)[C@H]2CC[C@H](O)CC2)[C@@H](C)C1` [Example 7, 5-(3,3-Dimethylbut-1-ynyl)-3-((1S,6S)—N-((1r,4S)-4-hydroxycyclohexyl)-4,6-dimethylcyclohex-3-enecarboxamido)thiophene-2-carboxylic acid], the EC50 in assay [4] is less than 4.5 nM.

Take `CC1=CC[C@H](C(=O)N(c2cc(C#CC(C)(C)C)sc2C(=O)O)[C@H]2CC[C@H](O)CC2)CC1` [Example 8, 5-(3,3-Dimethylbut-1-ynyl)-3-((R)—N-((1r,4R)-4-hydroxycyclohexyl)-4-methylcyclohex-3-enecarboxamido)thiophene-2-carboxylic acid]: the EC50 in assay [4] is less than 2.3 nM.

As usually defined, the Kd is the constant that tells how readily two partners part at equilibrium. Broadly, the EC50 is the concentration needed to bring the measured effect to its halfway point.
